Results: PMC4884932, “Selective brain penetrable Nurr1 transactivator for treating Parkinson's disease” (Oncotarget, 2016)
Where two headings read alike, the source gives them in different places.

Tests used:
[1] = Plasma protein binding by equilibrium dialysis, rat plasma; type: in vitro ADME; conditions: K3EDTA control plasma, 37°C, read-out: plasma protein binding, bound (converted)
Procedure: (§1) SD male rats were grouped into four groups: vehicle, 1mg/kg/day, 3mg/kg/day and 10mg/kg/day. Rats were treated with the designated dose by daily gavage. Acute plasma PK was conducted on day one and acute-on-chronic plasma PK was conducted on day 24. Pharmacokinetic assessment was conducted by collecting of blood at baseline (prior gavage), 0.25, 0.5, 1, 2, 4, 8, 12 and 24h post gavage. […] The spiked plasma was dialyzed at 37°C against an isotonic sodium phosphate buffer to achieve equilibrium. At the end of dialysis, the plasma and buffer level of IRX4204 were quantified by LC/MS/MS.

[2] = Plasma pharmacokinetics after oral gavage; type: in vivo; conditions: SD, rat
Procedure: […] Rats were treated with the designated dose by daily gavage. Acute plasma PK was conducted on day one and acute-on-chronic plasma PK was conducted on day 24. Pharmacokinetic assessment was conducted by collecting of blood at baseline (prior gavage), 0.25, 0.5, 1, 2, 4, 8, 12 and 24h post gavage. […] The spiked plasma was dialyzed at 37°C against an isotonic sodium phosphate buffer to achieve equilibrium. At the end of dialysis, the plasma and buffer level of IRX4204 were quantified by LC/MS/MS.
The LC/MS system was comprised of Waters Acquity Ultra Performance Liquid Chromatography (UPLC) coupled to a XEVO-TQS (Waters). The samples were analyzed by reverse-phase HPLC using a Waters Atlantis T3 column (150 × 2.1mm, 5um). The mobile phase was nebulized using heated nitrogen in a Z-spray source/interface set to electrospray negative ionization mode. The ionized compounds were detected using MS/MS. […] The detection was linear between 2.5nM to 10nM.

[3] = system: Nurr1 downstream genes in the SN; assay: Expression of Nurr1 downstream genes in the substantia nigra after oral treatment; type: in vivo; conditions: rat, 7 days oral 10 mg/kg/day
Procedure: Male SD rats underwent daily gavage with 10mg/kg/day for seven days. One hour after the last dose, rats were anesthetized with ketamine/xylazine and transcardially perfused with cold saline. Brains were isolated and homogenized with two volumes of phosphate buffer using ultrasonication. A 100μl sample of the homogenate was transferred to a 1.7ml centrifuge tube and mixed with 20μl of internal standard (100ng/ml of 13-cis retinoic acid-d5 in diluent). Then the sample was deproteinized with 300μl of acetonitrile, centrifuged, and the supernatant was transferred to an autosampler vial for analysis by LC/MS/MS. The calibration standards and the internal standard (13-cis retinoic acid-d5) were diluted in acetonitrile:butylatedhydroxyanisole:ethoxyquin:triethylamine (100:0.05:0.02:0.1, v/w/v/v).
(§2) Total RNA from VMB neurons or rat substantia nigra were isolated using the RNeasy Mini Kit from Qiagen (Valencia, CA) and 1μg of total RNA was reverse transcribed using SuperScript III first-strand synthesis supermix for qRT-PCR from Invitrogen (Carlsbad, CA) according to the manufacturer's instruction. Quantitative RT-PCR was performed using Maxima SYBR Green master mix (Fermentas) in ABI Prism 7900HT in four replicates with primers amplifying the target genes. Expression level of actin was used as an internal control. Data were normalized using the 2^−ΔΔCt method. Levels of target gene mRNAs were expressed relative to those in vehicle control groups and plotted in GraphPad Prism.

[4] = Plasma protein binding by equilibrium dialysis, human plasma; type: in vitro ADME; conditions: K3EDTA control plasma, 37°C, read-out: plasma protein binding, bound (converted)
Procedure: as §1

primary VMB neurons = assay: Nurr1 downstream gene expression in VMB neurons (real time PCR); type: cell-based, mouse; conditions: 1nM, 16 hours
Procedure: Ventral midbrain (VMB) from E13.5-14.5 C57BL/6 mouse embryos were dissected, triturated and plated on poly-D-lysine coated 12 well plates or glass coverslips with the serum-free chemically-defined Neurobasal medium, supplemented with 2% B27, 0.5mM L-glutamine, 50I.U./ml penicillin and 50μg/ml streptomycin (Gibco-BRL). […] For each time point, cells were washed once with phosphate buffered saline and fixed with 4% paraformaldehyde for TH immunofluorescent staining. For cell counting, 10 frames were randomly captured from each well using a Leica fluorescent microscope and a minimum of four replicates for each dose and each time point were analyzed for each experiment.
as §2

6-OHDA lesioned rats = assay: TH-immunoreactive neuron count in the SN of 6-OHDA lesioned rats; type: in vivo, rat; conditions: 10mg/kg/day gavage for three weeks, compared to the vehicle-treated group, p < 0.05
Procedure: All surgical procedures were performed under general anesthesia with ketamine/xylazine. 2μl 6-OHDA (20 mg/ml in 0.02% ascorbic acid) was stereotaxically injected into the right striatum of male SD rats. Lesion coordinates were set according to bregma and dura in mm: ML-3.7; AP-1.0; DV-5.5. The injection rate was 2μl/5 min and the injecting needle was left for 2 minutes after injection to avoid back flow. Apomorphine-induced rotations (see below) were assessed three days post-lesion and rats with ≥ 30 full contralateral rotation/30 minutes were included in the study.
Rats were randomly grouped into vehicle control group (n = 11) and drug treatment group (n = 10). […] The control group received DMSO/corn oil (vehicle). The treatment continued for three weeks.
The caudal portion of the brains were sectioned in the coronal plane on a cryostat at 12 μm. From a random start corresponding to SNpc position, every 12th section was selected -, fixed with 4% paraformaldehyde and processed for tyrosine hydroxylase (TH) staining using mouse monoclonal anti-TH antibody (1:2000, Chemicon) and the Vectastain Elite ABC kit (Vector Lab) according to manufacturer's instruction. TH positive neurons were counted as described.

[5] = female, 1 mg/kg/day, 1mg/kg/day gavage, Week 4
[6] = female, 1 mg/kg/day, Female, 1mg/kg/day gavage, Day 1
[7] = female, 3 mg/kg/day, 3mg/kg/day gavage, Week 4
[8] = female, 3 mg/kg/day, Female, 3mg/kg/day gavage, Day 1
[9] = female, 10 mg/kg/day, 10 mg/kg/day gavage, Week 4
[10] = female, 10 mg/kg/day, Female, 10 mg/kg/day gavage, Day 1
[11] = male, 1 mg/kg/day, 1mg/kg/day gavage, Week 4
[12] = male, 1 mg/kg/day, Male, 1mg/kg/day gavage, Day 1
[13] = male, 3 mg/kg/day, 3mg/kg/day gavage, Week 4
[14] = male, 3 mg/kg/day, Male, 3mg/kg/day gavage, Day 1
[15] = male, 10 mg/kg/day, 10 mg/kg/day gavage, Week 4
[16] = male, 10 mg/kg/day, Male, 10 mg/kg/day gavage, Day 1

## CC(/C=C/[C@@H]1C[C@]1(C)c1ccc2c(c1)C(C)(C)CCC2(C)C)=C\C(=O)O [IRX4204]
[1]
  fraction unbound at 1 ug/ml: 0.0249
[2]; [5]
  Cmax: 43.4 ng/mL
  Tmax: 15 min
[2]; [6]
  Cmax: 120 ng/mL
  Tmax: 30 min
[2]; female, 1 mg/kg/day, Female, 1mg/kg/day gavage, Day 1, read-out: AUC0-24
  AUC(0-t): 251 ng·h/mL
[2]; female, 1 mg/kg/day, Female, 1mg/kg/day gavage, Week 4, read-out: AUC0-24
  AUC(0-t): 136 ng·h/mL
[2]; [7]
  Cmax: 101 ng/mL
  Tmax: 60 min
[2]; [8]
  Cmax: 362 ng/mL
  Tmax: 30 min
[2]; female, 3 mg/kg/day, Female, 3mg/kg/day gavage, Day 1, read-out: AUC0-24
  AUC(0-t): 975 ng·h/mL
[2]; female, 3 mg/kg/day, Female, 3mg/kg/day gavage, Week 4, read-out: AUC0-24
  AUC(0-t): 344 ng·h/mL
[2]; [9]
  Cmax: 667 ng/mL
  Tmax: 15 min
[2]; [10]
  Cmax: 974 ng/mL
  Tmax: 30 min
[2]; female, 10 mg/kg/day, Female, 10 mg/kg/day gavage, Day 1, read-out: AUC0-24
  AUC(0-t): 2440 ng·h/mL
[2]; female, 10 mg/kg/day, Female, 10 mg/kg/day gavage, Week 4, read-out: AUC0-24
  AUC(0-t): 940 ng·h/mL
[2]; [11]
  Cmax: 25.7 ng/mL
  Tmax: 15 min
[2]; [12]
  Cmax: 58.9 ng/mL
  Tmax: 30 min
[2]; male, 1 mg/kg/day, Male, 1mg/kg/day gavage, Day 1, read-out: AUC0-24
  AUC(0-t): 140 ng·h/mL
[2]; male, 1 mg/kg/day, Male, 1mg/kg/day gavage, Week 4, read-out: AUC0-24
  AUC(0-t): 27.5 ng·h/mL
[2]; [13]
  Cmax: 54.5 ng/mL
  Tmax: 30 min
[2]; [14]
  Cmax: 198 ng/mL
  Tmax: 30 min
[2]; male, 3 mg/kg/day, Male, 3mg/kg/day gavage, Day 1, read-out: AUC0-24
  AUC(0-t): 484 ng·h/mL
[2]; male, 3 mg/kg/day, Male, 3mg/kg/day gavage, Week 4, read-out: AUC0-24
  AUC(0-t): 280 ng·h/mL
[2]; [15]
  Cmax: 77.2 ng/mL
  Tmax: 15 min
[2]; [16]
  Cmax: 542 ng/mL
  Tmax: 15 min
[2]; male, 10 mg/kg/day, Male, 10 mg/kg/day gavage, Day 1, read-out: AUC0-24
  AUC(0-t): 1490 ng·h/mL
[2]; male, 10 mg/kg/day, Male, 10 mg/kg/day gavage, Week 4, read-out: AUC0-24
  AUC(0-t): 422 ng·h/mL
[3]
  DAT mRNA level in the SN: significantly increased
  DDC mRNA level in the SN: significantly increased
  DJ-1(PARK7) mRNA level in the SN: significantly increased
  GRFα1 mRNA level in the SN: significantly increased
  Pitx3 mRNA level in the SN: significantly increased
  TH mRNA level in the SN: significantly increased
[3]; did not reach statistical significance
  VMAT-2 (VMAT2) mRNA expression in the SN: trend towards an increase
[4]
  fraction unbound at 1 ug/ml: 0.0064
Primary VMB neurons
  expression of dopa-decarboxylase (DDC): significantly increased
  expression of dopamine transporter (DAT): significantly increased
6-OHDA lesioned rats
  loss of TH-immunoreactive neurons in the SN: significantly reduced the loss
